Laboratory results published in the supplement of paper PMC13380429.

Columns and labels:
Conditions in all cases: 72 h
[1] = system: Calu-3; experiment: drug sensitivity score (DSS) for viability; higher = more toxic; extreme values may be limits of the assay
[2] = system: U2OS; experiment: as above
[3] = system: HepG2; experiment: as above
[4] = system: Vero E6; experiment: as above
[5] = system: Caco-2; experiment: as above
[6] = system: Calu-3; experiment: cell viability relative to DMSO; higher = less toxic
[7] = system: U2OS; experiment: as above
[8] = system: HepG2; experiment: as above
[9] = system: Vero E6; experiment: as above
[10] = system: Caco-2; experiment: as above
[11] = system: Calu-3; experiment: relative viability EC50 (midpoint between 100% and the lowest measured viability); higher = less toxic
[12] = system: U2OS; experiment: as above
[13] = system: HepG2; experiment: as above
[14] = system: Vero E6; experiment: as above
[15] = system: Caco-2; experiment: as above

Row | Structure (SMILES) | drug sensitivity score [1] | drug sensitivity score [2] | drug sensitivity score [3] | drug sensitivity score [4] | drug sensitivity score [5] | cell viability ([6]; 1 nM) [%] | cell viability ([6]; 10 nM) [%] | cell viability ([6]; 100 nM) [%] | cell viability ([6]; 1000 nM) [%] | cell viability ([6]; 10000 nM) [%] | cell viability ([7]; 1 nM) [%] | cell viability ([7]; 10 nM) [%] | cell viability ([7]; 100 nM) [%] | cell viability ([7]; 1000 nM) [%] | cell viability ([7]; 10000 nM) [%] | cell viability ([8]; 1 nM) [%] | cell viability ([8]; 10 nM) [%] | cell viability ([8]; 100 nM) [%] | cell viability ([8]; 1000 nM) [%] | cell viability ([8]; 10000 nM) [%] | cell viability ([9]; 1 nM) [%] | cell viability ([9]; 10 nM) [%] | cell viability ([9]; 100 nM) [%] | cell viability ([9]; 1000 nM) [%] | cell viability ([9]; 10000 nM) [%] | cell viability ([10]; 1 nM) [%] | cell viability ([10]; 10 nM) [%] | cell viability ([10]; 100 nM) [%] | cell viability ([10]; 1000 nM) [%] | cell viability ([10]; 10000 nM) [%] | relative viability EC50 [11] [µM] | relative viability EC50 [12] [µM] | relative viability EC50 [13] [µM] | relative viability EC50 [14] [µM] | relative viability EC50 [15] [µM]
1 | C1CCC(/N=C(\NC23CC4CC(CC(C4)C2)C3)N2CCOCC2)CC1 | 0 | 0 | 0 | 0 | 0 | 106 | 90.2 | 103 | 89 | 100 | 96.4 | 94.8 | 102 | 98.6 | 89.5 | 96.1 | 108 | 91.7 | 113 | 108 | 88.3 | 96 | 90.6 | 98.9 | 104 | 101 | 91.7 | 102 | 96.7 | 101 | > 10 | > 10 | > 10 | > 10 | > 10
2 | CC(Oc1ccc(O)cc1)(P(=O)(O)O)P(=O)(O)O | 0 | 0 | 0 | 0 | 0 | 106 | 88.6 | 103 | 84.8 | 97.1 | 104 | 99.5 | 105 | 98 | 100 | 106 | 95.4 | 97.6 | 99.2 | 102 | 96.5 | 104 | 97.7 | 98.7 | 95.8 | 110 | 98.7 | 98 | 87.1 | 104 | > 10 | > 10 | > 10 | > 10 | > 10
3 | CC1=NN=C(c2ccc(N)cc2)c2cc3c(cc2C1)OCO3 | 0 | 0 | 0 | 0 | 0.4 | 107 | 88.2 | 103 | 87.6 | 95.1 | 93.3 | 93.9 | 99.3 | 96.8 | 94 | 109 | 93.2 | 104 | 97.9 | 106 | 94.5 | 102 | 98.4 | 104 | 100 | 95.7 | 100 | 107 | 102 | 81 | > 10 | > 10 | > 10 | > 10 | > 10
4 | CCCC(=O)C1(c2ccccc2)CCN(C(=O)[C@@H](Cc2ccc(OC)cc2)NC(=O)[C@@H](N)Cc2cncn2C)CC1 | 0 | 0 | 0 | 0 | 0 | 98.3 | 100 | 96.6 | 101 | 106 | 98.8 | 97.9 | 104 | 102 | 97.7 | 95.4 | 105 | 97.8 | 118 | 95.3 | 102 | 101 | 98.7 | 102 | 97.1 | 108 | 94.9 | 97.3 | 102 | 99.7 | > 10 | > 10 | > 10 | > 10 | > 10
5 | CCCNCCc1ccc(NS(=O)(=O)c2ccc(OC(F)(F)F)cc2)cc1 | 0 | 0 | 1.1 | 0 | 0 | 97.8 | 108 | 102 | 100 | 97.4 | 105 | 104 | 100 | 98.4 | 92.9 | 101 | 92.5 | 104 | 85.5 | 90 | 116 | 106 | 101 | 103 | 88.2 | 102 | 102 | 91.5 | 103 | 98.2 | > 10 | > 10 | > 10 | > 10 | > 10
6 | CN(C)CCn1cc(S(=O)(=O)c2cccc(F)c2)c2cccnc21 | 0 | 0 | 0 | 0 | 0 | 116 | 94.7 | 90.4 | 97.5 | 95.3 | 103 | 98.3 | 99.9 | 98.2 | 103 | 106 | 110 | 91.8 | 103 | 97.5 | 98.6 | 102 | 101 | 105 | 97.7 | 98.2 | 102 | 106 | 98.8 | 103 | > 10 | > 10 | > 10 | > 10 | > 10
7 | COCCOc1ccc2c(c1)ncn2-c1ccc2cccc(N3CCC(N)CC3)c2n1 | 0 | 3.7 | 6.1 | 3.6 | 0 | 96 | 92.7 | 103 | 123 | 87.4 | 98.6 | 104 | 95.3 | 95.4 | 45.2 | 99.3 | 101 | 98.3 | 93.3 | 8.1 | 98.3 | 97.1 | 102 | 94.9 | 48.5 | 94.1 | 108 | 98.2 | 104 | 90.4 | > 10 | 2.47 | 2.57 | 2.35 | > 10
